Results: US12319672B2, “Alpha-D-galactopyranoside derivatives” (Idorsia Pharmaceuticals Ltd, priority 2019, dated 2025)
pIC50: −log10 of the molar value.

How the values were obtained:
human Gal-3 (hGal-3) = human Gal-3 (hGal-3) (Homo sapiens (Human), UniProt P17931); test: Competitive binding assay: binding of biotinylated hGal-3 to microplate-adsorbed asialofetuin (ASF); settings: Activity on hGal-3; mean values of several measurements
Procedure, shortened: (§1)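 Spectrophotometric readout (streptavidin-peroxidase, ABTS) of biotinylated galectin retained on ASF-coated wells. Biotinylated hGal-1 or hGal-3, 300-1000 ng/mL, co-incubated with test compound 3 h at 4° C, then washed. Mean IC50 from repeat runs.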

human Gal-1 (hGal-1) = test: Competitive binding assay: binding of biotinylated hGal-1 to microplate-adsorbed asialofetuin (ASF); settings: Activities on hGal-1; mean values of several measurements
human Gal-1 (hGal-1), sequence (P09382 2-135 limits assumed): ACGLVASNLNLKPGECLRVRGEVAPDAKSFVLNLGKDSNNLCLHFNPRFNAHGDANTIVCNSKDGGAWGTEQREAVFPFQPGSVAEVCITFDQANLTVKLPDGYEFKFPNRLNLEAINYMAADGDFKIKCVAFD
Procedure, shortened: as §1

human Gal-3 (hGal-3), sequence (P17931 whole entry): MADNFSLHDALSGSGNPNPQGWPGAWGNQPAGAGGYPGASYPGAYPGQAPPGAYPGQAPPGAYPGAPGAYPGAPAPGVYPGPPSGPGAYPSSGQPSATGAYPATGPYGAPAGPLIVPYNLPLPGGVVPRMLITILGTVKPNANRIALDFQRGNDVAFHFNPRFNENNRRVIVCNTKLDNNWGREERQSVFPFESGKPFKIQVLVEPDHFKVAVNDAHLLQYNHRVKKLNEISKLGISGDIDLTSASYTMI

Row | Compound | pIC50 (human Gal-3 (hGal-3)) | pIC50 (human Gal-1 (hGal-1))
1 | CO[C@@H]1[C@@H](n2cc(-c3ccc(Cl)c(F)c3F)nn2)[C@@H](O)[C@@H](CO)O[C@@H]1Cc1cc(C2(C)CC2)no1 [Ex 1.259] | 7.48 | 6.21
2 | CO[C@@H]1[C@@H](n2cc(-c3ccc(Cl)c(F)c3F)nn2)[C@@H](O)[C@@H](CO)O[C@@H]1Cc1cc(C2(C)COC2)no1 [Ex 1.260] | 7.20 | 5.85
3 | CO[C@@H]1[C@@H](n2cc(-c3ccc(Cl)c(F)c3F)nn2)[C@@H](O)[C@@H](CO)O[C@@H]1Cc1cc(C(C)(C)CO)no1 [Ex 1.261] | 7.38 | 5.98
4 | CO[C@@H]1[C@@H](n2cc(-c3ccc(F)c(F)c3F)nn2)[C@@H](O)[C@@H](CO)O[C@@H]1Cc1cc(C(C)(CO)CCl)no1 (stereo partly drawn) [Ex 1.262] | 7.15 | 6.48
5 | CO[C@@H]1[C@@H](n2cc(-c3ccc(C)c(F)c3F)nn2)[C@@H](O)[C@@H](CO)O[C@@H]1Cc1cc(C(C)(CO)CCl)no1 (stereo partly drawn) [Ex 1.263] | 7.24 | 5.99
6 | CO[C@@H]1[C@@H](n2cc(-c3ccc(Cl)c(F)c3F)nn2)[C@@H](O)[C@@H](CO)O[C@@H]1Cc1cc(C(C)(CO)CCl)no1 (stereo partly drawn) [Ex 1.264] | 7.15 | 5.79
7 | CO[C@@H]1[C@@H](n2cc(-c3cc(F)c(F)c(F)c3)nn2)[C@@H](O)[C@@H](CO)O[C@@H]1CC1CC(C(C)(C)C)=NO1 (stereo partly drawn) [Ex 1.265] | 6.60 | 5.59
8 | CO[C@@H]1[C@@H](n2cc(-c3ccc(Cl)c(F)c3F)nn2)[C@@H](O)[C@@H](CO)O[C@@H]1CC1CC(C(C)(C)C)=NO1 (stereo partly drawn) [Ex 1.266] | 7.04 | 5.81
9 | CO[C@@H]1[C@@H](n2cc(-c3ccc(C#N)c(F)c3F)nn2)[C@@H](O)[C@@H](CO)O[C@@H]1Cc1cc(C(C)(C)C)on1 [Ex 1.267] | 6.80 | 5.21
10 | CO[C@@H]1[C@@H](n2cc(-c3cc(F)c(F)c(F)c3)nn2)[C@@H](O)[C@@H](CO)O[C@@H]1Cc1cc(C2(C)CCOCC2)on1 [Ex 1.268] | 6.96 | 5.60
11 | CO[C@@H]1[C@@H](n2cc(-c3ccc(F)c(F)c3F)nn2)[C@@H](O)[C@@H](CO)O[C@@H]1Cc1cc(C2(C)CCOCC2)on1 [Ex 1.269] | 7.31 | 6.05
12 | CO[C@@H]1[C@@H](n2cc(-c3ccc(C)c(F)c3F)nn2)[C@@H](O)[C@@H](CO)O[C@@H]1Cc1cc(C2(C)CCOCC2)on1 [Ex 1.270] | 7.42 | 5.45
13 | CO[C@@H]1[C@@H](n2cc(-c3ccc(Cl)c(F)c3F)nn2)[C@@H](O)[C@@H](CO)O[C@@H]1Cc1cc(C2(C)CCOCC2)on1 [Ex 1.271] | 7.31 | 5.78
14 | CO[C@@H]1[C@@H](n2cc(-c3cc(F)c(F)c(F)c3)nn2)[C@@H](O)[C@@H](CO)O[C@@H]1Cc1cc(C2(C)CCCC2)on1 [Ex 1.272] | 6.60 | 5.46
15 | CO[C@@H]1[C@@H](n2cc(-c3ccc(F)c(F)c3F)nn2)[C@@H](O)[C@@H](CO)O[C@@H]1Cc1cc(C2(C)CCCC2)on1 [Ex 1.273] | 7.18 | 6.14
16 | CO[C@@H]1[C@@H](n2cc(-c3ccc(C)c(F)c3F)nn2)[C@@H](O)[C@@H](CO)O[C@@H]1Cc1cc(C2(C)CCCC2)on1 [Ex 1.274] | 6.96 | 5.26
17 | CO[C@@H]1[C@@H](n2cc(-c3ccc(Cl)c(F)c3F)nn2)[C@@H](O)[C@@H](CO)O[C@@H]1Cc1cc(C2(C)CCCC2)on1 [Ex 1.275] | 6.96 | 5.48
18 | CO[C@@H]1[C@@H](n2cc(-c3cc(F)c(F)c(F)c3)nn2)[C@@H](O)[C@@H](CO)O[C@@H]1Cc1cc(C2(C#N)CCCC2)on1 [Ex 1.276] | 7.01 | 5.29

Next, values leading:

Row | pIC50 (human Gal-3 (hGal-3)) | pIC50 (human Gal-1 (hGal-1)) | Compound
19 | 7.03 | 5.17 | CO[C@@H]1[C@@H](n2cc(-c3ccc(C)c(F)c3F)nn2)[C@@H](O)[C@@H](CO)O[C@@H]1Cc1cc(C2(C#N)CCCC2)on1 [Ex 1.278]
20 | 6.52 | 5.74 | CO[C@@H]1[C@@H](n2cc(-c3ccc(Cl)c(F)c3F)nn2)[C@@H](O)[C@@H](CO)O[C@@H]1CC1CC(C(C)(C)CO)=NO1 (stereo partly drawn) [Ex 1.280]
21 | 6.28 | 5.59 | CO[C@@H]1[C@@H](n2cc(-c3cc(F)c(F)c(F)c3)nn2)[C@@H](O)[C@@H](CO)O[C@@H]1CC1CC(C(C)(C)CO)=NO1 (stereo partly drawn) [Ex 1.281]
22 | 6.96 | 5.75 | CO[C@@H]1[C@@H](n2cc(-c3cc(F)c(F)c(F)c3)nn2)[C@@H](O)[C@@H](CO)O[C@@H]1Cc1cc(C2(C)CCOCC2)no1 [Ex 1.282]
23 | 7.31 | 6.42 | CO[C@@H]1[C@@H](n2cc(-c3ccc(F)c(F)c3F)nn2)[C@@H](O)[C@@H](CO)O[C@@H]1Cc1cc(C2(C)CCOCC2)no1 [Ex 1.283]
24 | 6.82 | 5.23 | CO[C@@H]1[C@@H](n2cc(-c3ccc(C)c(F)c3F)nn2)[C@@H](O)[C@@H](CO)O[C@@H]1Cc1cc(C2(C)CCOCC2)no1 [Ex 1.284]
25 | 7.29 | 5.96 | CO[C@@H]1[C@@H](n2cc(-c3ccc(Cl)c(F)c3F)nn2)[C@@H](O)[C@@H](CO)O[C@@H]1Cc1cc(C2(C)CCOCC2)no1 [Ex 1.285]
26 | 6.64 | 5.51 | CO[C@@H]1[C@@H](n2cc(-c3cc(F)c(F)c(F)c3)nn2)[C@@H](O)[C@@H](CO)O[C@@H]1Cc1cc(C2(C)CCCC2)no1 [Ex 1.286]
27 | 7.16 | 6.23 | CO[C@@H]1[C@@H](n2cc(-c3ccc(F)c(F)c3F)nn2)[C@@H](O)[C@@H](CO)O[C@@H]1Cc1cc(C2(C)CCCC2)no1 [Ex 1.287]
28 | 7.20 | 5.24 | CO[C@@H]1[C@@H](n2cc(-c3ccc(C)c(F)c3F)nn2)[C@@H](O)[C@@H](CO)O[C@@H]1Cc1cc(C2(C)CCCC2)no1 [Ex 1.288]
29 | 7.23 | 5.75 | CO[C@@H]1[C@@H](n2cc(-c3ccc(Cl)c(F)c3F)nn2)[C@@H](O)[C@@H](CO)O[C@@H]1Cc1cc(C2(C)CCCC2)no1 [Ex 1.289]
30 | 6.57 | 5.67 | CO[C@@H]1[C@@H](n2cc(-c3cc(F)c(F)c(F)c3)nn2)[C@@H](O)[C@@H](CO)O[C@@H]1Cc1cc(C2(C#N)CCCC2)no1 [Ex 1.290]
31 | 6.85 | 6.03 | CO[C@@H]1[C@@H](n2cc(-c3ccc(F)c(F)c3F)nn2)[C@@H](O)[C@@H](CO)O[C@@H]1Cc1cc(C2(C#N)CCCC2)no1 [Ex 1.291]
32 | 7.29 | 5.45 | CO[C@@H]1[C@@H](n2cc(-c3ccc(C)c(F)c3F)nn2)[C@@H](O)[C@@H](CO)O[C@@H]1Cc1cc(C2(C#N)CCCC2)no1 [Ex 1.292]
33 | 7.03 | 5.53 | CO[C@@H]1[C@@H](n2cc(-c3ccc(Cl)c(F)c3F)nn2)[C@@H](O)[C@@H](CO)O[C@@H]1Cc1cc(C2(C#N)CCCC2)no1 [Ex 1.293]
34 | 5.81 | 4.85 | COc1ccc(C2=NOC(C[C@H]3O[C@H](CO)[C@H](O)[C@H](n4cc(-c5cc(F)c(F)c(F)c5)nn4)[C@H]3OC)C2)cc1 (stereo partly drawn) [Ex 1.294]
35 | 5.74 | 4.77 | OC[C@H]1O[C@H](CC2CC(c3cc(Cl)ccc3Cl)=NO2)[C@H](O)[C@@H](n2cc(-c3cc(F)c(F)c(F)c3)nn2)[C@H]1O (stereo partly drawn) [Ex 1.295]
36 | 5.85 | 4.28 | COc1ccc(-c2cc(C[C@H]3O[C@H](CO)[C@H](O)[C@H](n4cc(-c5cc(F)c(F)c(F)c5)nn4)[C@H]3O)no2)cc1 [Ex 1.296]
